# Results from US10494683B2, “Nitrate- and nitrite-reducing probiotic feed additive” (The United States of America, as represented by the …, priority 2015, dated 2019).
# Experiments:
# [1] = test system: mixed ruminal microorganisms; experiment: CH4 production in vitro with mixed ruminal microorganisms; type: cell-based
# Holstein steers = experiment: Ruminally cannulated steers given NaNO3 with or without strain NRRL 67118; type: in vivo; details: rumen samples of treated steers incubated in vitro
Compound,CH4 production [1],"dCH4/dt (Holstein steers; 83 mg NaNO3/kg body weight daily, Control 4.13)",Nitrate reduction (Holstein steers; Control 0.42),Nitrite reduction (Holstein steers; Control 1.21)
"O=N[O-].[Na+] [NO2, NaNO2]",zero,,,
"O=[N+]([O-])[O-].[Na+] [NO3, NaNO3]",,2.22 b umol/ml per h,0.54 e mM/hr,1.38 c mM/hr
